Where a name gives a salt, the structure may show the parent alone.
Columns and labels:
FAAH [1] = biological target: T1, FAAH (Mus musculus, UniProt O08914); test: In vivo FAAH inhibition after oral dosing, remaining activity in brain homogenate (BRh, central nervous tissue); design: species or system NMRI mice; conditions: brain homogenate, 3 mg/kg, 8 h after dosing; low value = strong inhibitor
T1 construct: A fragment of liver, left lung lobe and brain without cerebellum were removed; from tissue; host or cells: male NMRI mice; brain (without cerebellum) and liver homogenates
T1 sequence (O08914 1-579): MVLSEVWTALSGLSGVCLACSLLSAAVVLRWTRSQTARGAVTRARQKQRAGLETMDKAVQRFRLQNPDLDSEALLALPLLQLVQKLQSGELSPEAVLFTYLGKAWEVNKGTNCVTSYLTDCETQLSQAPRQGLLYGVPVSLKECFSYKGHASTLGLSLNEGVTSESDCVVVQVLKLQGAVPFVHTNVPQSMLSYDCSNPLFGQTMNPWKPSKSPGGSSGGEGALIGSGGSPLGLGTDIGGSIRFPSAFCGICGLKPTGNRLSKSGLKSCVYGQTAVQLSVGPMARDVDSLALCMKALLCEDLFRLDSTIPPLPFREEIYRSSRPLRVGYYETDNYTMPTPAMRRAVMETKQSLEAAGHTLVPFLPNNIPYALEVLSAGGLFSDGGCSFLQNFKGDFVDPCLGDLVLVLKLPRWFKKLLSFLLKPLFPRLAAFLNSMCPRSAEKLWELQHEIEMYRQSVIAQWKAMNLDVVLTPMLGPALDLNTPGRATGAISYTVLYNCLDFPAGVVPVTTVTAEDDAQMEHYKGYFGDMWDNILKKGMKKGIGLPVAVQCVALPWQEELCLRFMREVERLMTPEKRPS
Procedure: (§1) The in vivo test was performed according to the protocol described below. BRh indicates inhibition in central nervous tissue and LVh indicates inhibition in peripheral tissue, in this case liver.
(§2) The animals used for experiments were male NMRI mice (weighing 27-44 g) obtained from Interfauna Ibérica (Spain). Mice were kept 5 per cage, under controlled environmental conditions (12 hr light/dark cycle and room temperature 22±1° C.). Food and tap water were allowed ad libitum and the experiments were all carried out during daylight hours.
(§3) Animals were administered 30 mg/kg or 3 mg/kg compounds of the invention via oral route (8 ml/kg; compound suspended in 0.5% carboxymethylcellulose (CMC) or solubilized in water) or vehicle (controls) using animal feeding stainless steel curve needles (Perfectum, U.S.A.). Fifteen minutes before sacrifice animal were anesthetized with pentobarbital 60 mg/kg administered intraperitoneally. A fragment of liver, left lung lobe and brain without cerebellum were removed and put in plastic vials containing membrane buffer (3 mM MgCl2, 1 mM EDTA, 50 mM Tris HCl pH 7.4). Tissues were stored at −30° C. until analysis.
(§4) Animals were always fasted overnight before administration of compounds except for time points of >18 h, where food was removed on the morning of day of administration and the compound was administered in the afternoon of the same day. Animals were then given water but nothing else.
(§5) Tissues were thawed on ice and were homogenized in 10 volumes of membrane buffer (3 mM MgCl2, 1 mM EDTA, 50 mM Tris HCl pH 7.4) with either Potter-Elvejhem (brains—8 strokes at 500 rpm) or Heidolph Diax (livers—2 strokes at position 5 for 20 sec with 30 sec pauses).
(§6) Total protein in tissues was determined with the BioRad Protein Assay (BioRad) using a standard curve of BSA (50-250 μg/ml).
(§7) Reaction mix (total volume of 200 μl) contained: […] (2 μM AEA+5 nM ^3H-AEA), 0.1% fatty acid free BSA, 15 μg (brain), 5 μg (liver) or 50 μg (lung) protein, in 1 mM EDTA, 10 mM Tris pH 7.6. After a […] pre-incubation period at 37° C., reaction was started by the addition of the substrate solution (cold AEA+radiolabelled AEA+BSA). Reaction was carried out for 10 min (brain and lung) or […] (liver) before termination by the addition of 400 μl activated charcoal suspension (8 g charcoal in 32 ml 0.5 M HCl in continuous agitation). After a […] incubation period at room temperature with agitation, charcoal was sedimented by centrifugation in microfuge (10 min at 13000 rpm). 200 μl of the supernatant were added to 800 μl Optiphase Supermix scintillation cocktail previously distributed in 24-well plates. Counts per minute (cpm) were determined in a MicrobetaTriLux scintillation counter.
(§8) In each assay blanks (without protein) were prepared.
(§9) The percentage of remaining enzymatic activity was calculated in respect to controls and after blank subtraction.

FAAH [2] = biological target: T1, FAAH; test: In vivo FAAH inhibition after oral dosing, remaining activity in liver homogenate (LVh, peripheral tissue); design: species or system NMRI mice; conditions: liver homogenate, 3 mg/kg, 8 h after dosing; low value = strong inhibitor
Procedure: as §1, §2, §3, §4, §5, §6, §7, §8, §9

In Vivo BRh 3 mg·kg 8 h (remaining FAAH activity, % of control) (FAAH [1])	In Vivo LVh 3 mg·kg 8 h (remaining FAAH activity, % of control) (FAAH [2])	Structure (SMILES)
0.8 % of control	1 % of control	COc1ccc(-c2cn(C(=O)N(C)C3CCN(Cc4ccccc4)CC3)cn2)cc1 [Compound no. 419, N-(1-benzylpiperidin-4-yl)-4-(4-methoxyphenyl)-N-methyl-1H-imidazole-1-carboxamide]
1.7 % of control	2.7 % of control	CN(C(=O)n1cnc(-c2ccc(S(C)(=O)=O)cc2)c1)C1CCCCC1 [Compound no. 422, N-cyclohexyl-N-methyl-4-(4-(methylsulfonyl)phenyl)-1H-imidazole-1-carboxamide]
90 % of control	2.1 % of control	CN(C(=O)n1cnc(-c2cccc(C(=O)NO)c2)c1)C1CCN(Cc2ccccc2)CC1 [Compound no. 423, N-(1-benzylpiperidin-4-yl)-4-(3-(hydroxycarbamoyl)phenyl)-N-methyl-1H-imidazole-1-carboxamide]
1 % of control	0.5 % of control	CN(C(=O)n1cnc(-c2cccc(C(=O)NO)c2)c1)C1CCCCC1 [Compound no. 424, N-cyclohexyl-4-(3-(hydroxycarbamoyl)phenyl)-N-methyl-1H-imidazole-1-carboxamide]
111.4 % of control	104.6 % of control	CN(C(=O)n1cnc(-c2ccc(NCc3ccccc3)c([N+](=O)[O-])c2)c1)C1CCCCC1 [Compound no. 425, 4-(4-(benzylamino)-3-nitrophenyl)-N-cyclohexyl-N-methyl-1H-imidazole-1-carboxamide]
96.9 % of control	115.8 % of control	CN(C(=O)n1cnc(-c2ccc3c(c2)[nH]c(=O)n3Cc2ccccc2)c1)C1CCCCC1 [Compound no. 426, 4-(1-benzyl-2-oxo-2,3-dihydro-1H-benzo[d]imidazol-5-yl)-N-cyclohexyl-N-methyl-1H-imidazole-1-carboxamide]
96.1 % of control	65.5 % of control	CN(C(=O)n1cnc(-c2ccc(S(=O)(=O)N3CCC(O)CC3)cc2)c1)C1CCCCC1 [Compound no. 432, N-cyclohexyl-4-(4-(4-hydroxypiperidin-1-ylsulfonyl)phenyl)-N-methyl-1H-imidazole-1-carboxamide]
4.3 % of control	4.9 % of control	CN(C)c1ccc(-c2cn(C(=O)N(C)C3CCCCC3)cn2)cc1[N+](=O)[O-] [Compound no. 435, N-cyclohexyl-4-(4-(dimethylamino)-3-nitrophenyl)-N-methyl-1H-imidazole-1-carboxamide]
94.4 % of control	58.6 % of control	CN(C(=O)n1cnc(-c2ccc(O)c(-c3nn[nH]n3)c2)c1)C1CCCCC1 [Compound no. 439, N-cyclohexyl-4-(4-hydroxy-3-(2H-tetrazol-5-yl)phenyl)-N-methyl-1H-imidazole-1-carboxamide]
23.2 % of control	3.3 % of control	CC1(C)COCN1C(=O)n1nnc2cc(C(=O)NO)ccc21 [Compound no. 440, 1-(4,4-dimethyloxazolidine-3-carbonyl)-N-hydroxy-1H-benzo[d][1,2,3]triazole-5-carboxamide]
11.8 % of control	6.5 % of control	CN(C)c1ccc(-c2cn(C(=O)N(C)C3CCCCC3)cn2)cc1N [Compound no. 447, 4-(3-amino-4-(dimethylamino)phenyl)-N-cyclohexyl-N-methyl-1H-imidazole-1-carboxamide]
114.2 % of control	65.4 % of control	COc1ccc(-c2cn(C(=O)N(C)C3CCNCC3)cn2)cc1N [Compound no. 450, 4-(3-amino-4-methoxyphenyl)-N-methyl-N-(piperidin-4-yl)-1H-imidazole-1-carboxamide]
1.1 % of control	0.3 % of control	CN(C(=O)n1cnc(-c2ccc(O)cc2)c1)C1CCN(Cc2ccccc2)CC1 [Compound no. 451, N-(1-benzylpiperidin-4-yl)-4-(4-hydroxyphenyl)-N-methyl-1H-imidazole-1-carboxamide hydrobromide]
3.1 % of control	3 % of control	Br.CN(C(=O)n1cnc(-c2ccc(O)c(F)c2)c1)C1CCN(Cc2ccccc2)CC1 [Compound no. 454, N-(1-benzylpiperidin-4-yl)-4-(3-fluoro-4-hydroxyphenyl)-N-methyl-1H-imidazole-1-carboxamide hydrobromide]
28.1 % of control	10.6 % of control	Br.CN(C(=O)n1cnc(-c2ccc(O)c([N+](=O)[O-])c2)c1)C1CCN(Cc2ccccc2)CC1 [Compound no. 457, N-(1-benzylpiperidin-4-yl)-4-(4-hydroxy-3-nitrophenyl)-N-methyl-1H-imidazole-1-carboxamide hydrobromide]
1.3 % of control	1.9 % of control	CN(C(=O)n1cnc(-c2ccc[n+]([O-])c2)c1)C1CCN(Cc2ccccc2)CC1 [Compound no. 459, 3-(1-((1-benzylpiperidin-4-yl)(methyl)carbamoyl)-1H-imidazol-4-yl)pyridine 1-oxide]
3.8 % of control	3.1 % of control	Br.CN(C(=O)n1cnc(-c2ccc(O)c(O)c2)c1)C1CCN(Cc2ccccc2)CC1 [Compound no. 465, N-(1-benzylpiperidin-4-yl)-4-(3,4-dihydroxyphenyl)-N-methyl-1H-imidazole-1-carboxamide hydrobromide]
4.7 % of control	4.3 % of control	COc1ccc(-c2cn(C(=O)N(C)C3CCOCC3)cn2)cc1N [Compound no. 468, 4-(3-amino-4-methoxyphenyl)-N-methyl-N-(tetrahydro-2H-pyran-4-yl)-1H-imidazole-1-carboxamide]

Structure (SMILES)	In Vivo BRh 3 mg·kg 8 h (remaining FAAH activity, % of control) (FAAH [1])	In Vivo LVh 3 mg·kg 8 h (remaining FAAH activity, % of control) (FAAH [2])
COc1ccc(-c2cn(C(=O)N(C)C3CCCCC3)cn2)cc1-c1nn[nH]n1 [Compound no. 438, N-cyclohexyl-4-(4-methoxy-3-(2H-tetrazol-5-yl)phenyl)-N-methyl-1H-imidazole-1-carboxamide]	92.4 % of control	6.1 % of control

— patent US9353082B2, “Pharmaceutical compounds” (BIAL—PORTELA & CA, S.A., priority 2008, dated 2016)
